# According to patent publication US10463671B2, “Combination therapy for treating cancer” (Epizyme, Inc., priority 2013, dated 2019):
# What was measured:
# [1] = system: glucocorticoid signaling genes in SU-DHL10 cells; assay: RT2 Glucocorticoid Signaling PCR array; format: cell-based; design: IL10 Ct Values / TNF Ct Values: unit not given here; conditions: SUDHL10, 4 days
# [2] = system: DOHH2 cells; assay: Medium throughput combination proliferation assay (CellTiter-Glo, Chou-Talalay CI / potency shift); conditions: DOHH2 EZH2 wild-type cells
compound,measurement,setting,value
CCN(c1cc(-c2ccc(CN3CCOCC3)cc2)cc(C(=O)NCc2c(C)cc(C)[nH]c2=O)c1C)C1CCOCC1 [Compound 44],ACTB Ct Values,[1],14.828
same,ADARB1 Ct Values,[1],31.215
same,AFF1 Ct Values,[1],29.849
same,AK2 Ct Values,[1],20.974
same,AMPD3 Ct Values,[1],27.654
same,ANGPTL4 Ct Values,[1],32.107
same,ANXA4 Ct Values,[1],24.961
same,ARID5B Ct Values,[1],28.208
same,ASPH Ct Values,[1],23.837
same,ATF4 Ct Values,[1],20.607
same,B2M Ct Values,[1],19.147
same,BCL6 Ct Values,[1],22.639
same,CEBPA Ct Values,[1],28.900
same,CEBPB Ct Values,[1],26.624
same,CREB1 Ct Values,[1],23.809
same,CREB3 Ct Values,[1],26.452
same,CREB3L4 Ct Values,[1],26.139
same,CYB561 Ct Values,[1],37.004
same,DDIT4 Ct Values,[1],26.109
same,DUSP1 Ct Values,[1],31.300
same,EHD3 Ct Values,[1],26.768
same,FKBP5 Ct Values,[1],22.883
same,FOSL2 Ct Values,[1],32.931
same,GAPDH Ct Values,[1],17.793
same,GDPD1 Ct Values,[1],30.943
same,GOT1 Ct Values,[1],25.306
same,H6PD Ct Values,[1],28.126
same,HNRPLL Ct Values,[1],23.764
same,HPRT1 Ct Values,[1],20.615
same,IL1RN Ct Values,[1],32.182
same,IL6R Ct Values,[1],33.807
same,IL10 Ct Values,[1],32.505
same,KLF9 Ct Values,[1],32.525
same,KLF13 Ct Values,[1],24.536
same,LOX Ct Values,[1],35.385
same,MERTK Ct Values,[1],34.652
same,MT2A Ct Values,[1],37.225
same,NFKBIA Ct Values,[1],23.654
same,NR3C1 Ct Values,[1],23.754
same,PDCD7 Ct Values,[1],25.123
same,PDP1 Ct Values,[1],26.175
same,PER1 Ct Values,[1],27.710
same,PER2 Ct Values,[1],24.780
same,PIK3R1 Ct Values,[1],24.661
same,PLEKHF1 Ct Values,[1],28.979
same,POU2F1 Ct Values,[1],25.842
same,POU2F2 Ct Values,[1],25.098
same,RASA3 Ct Values,[1],24.277
same,RGS2 Ct Values,[1],25.587
same,RHOB Ct Values,[1],27.829
same,RHOJ Ct Values,[1],36.530
same,RPLP0 Ct Values,[1],16.821
same,SESN1 Ct Values,[1],27.480
same,SGK1 Ct Values,[1],25.358
same,SLC10A6 Ct Values,[1],37.060
same,SLC19A2 Ct Values,[1],30.597
same,SLC22A5 Ct Values,[1],30.263
same,SNTA1 Ct Values,[1],27.003
same,SPHK1 Ct Values,[1],27.804
same,SPSB1 Ct Values,[1],26.133
same,STAT5A Ct Values,[1],25.275
same,STAT5B Ct Values,[1],24.281
same,TBL1XR1 Ct Values,[1],21.846
same,TNF Ct Values,[1],23.725
same,TNFAIP3 Ct Values,[1],27.677
same,TSC22D3 Ct Values,[1],28.871
same,USP2 Ct Values,[1],23.434
same,USP54 Ct Values,[1],27.789
same,VDR Ct Values,[1],29.514
same,VLDLR Ct Values,[1],32.904
same,ZFP36 Ct Values,[1],26.643
same,ZHX3 Ct Values,[1],26.305
same,ZNF2B1 Ct Values,[1],23.857
same,ACTB ΔCT (B2M),[1]; normalized to B2M,−4.319
same,ADARB1 ΔCT (B2M),[1]; normalized to B2M,12.068
same,AFF1 ΔCT (B2M),[1]; normalized to B2M,10.702
same,AK2 ΔCT (B2M),[1]; normalized to B2M,1.827
same,AMPD3 ΔCT (B2M),[1]; normalized to B2M,8.507
same,ANGPTL4 ΔCT (B2M),[1]; normalized to B2M,12.960
same,ANXA4 ΔCT (B2M),[1]; normalized to B2M,5.814
same,ARID5B ΔCT (B2M),[1]; normalized to B2M,9.061
same,ASPH ΔCT (B2M),[1]; normalized to B2M,4.690
same,ATF4 ΔCT (B2M),[1]; normalized to B2M,1.460
same,B2M ΔCT (B2M),[1]; normalized to B2M,0.000
same,BCL6 ΔCT (B2M),[1]; normalized to B2M,3.492
same,CEBPA ΔCT (B2M),[1]; normalized to B2M,9.753
same,CEBPB ΔCT (B2M),[1]; normalized to B2M,7.477
same,CREB1 ΔCT (B2M),[1]; normalized to B2M,4.662
same,CREB3L4 ΔCT (B2M),[1]; normalized to B2M,6.992
same,CREB3 ΔCT (B2M),[1]; normalized to B2M,7.305
same,CYB561 ΔCT (B2M),[1]; normalized to B2M,17.857
same,DDIT4 ΔCT (B2M),[1]; normalized to B2M,6.962
same,DUSP1 ΔCT (B2M),[1]; normalized to B2M,12.153
same,EHD3 ΔCT (B2M),[1]; normalized to B2M,7.621
same,FKBP5 ΔCT (B2M),[1]; normalized to B2M,3.736
same,FOSL2 ΔCT (B2M),[1]; normalized to B2M,13.784
same,GAPDH ΔCT (B2M),[1]; normalized to B2M,−1.354
same,GDPD1 ΔCT (B2M),[1]; normalized to B2M,11.796
same,GOT1 ΔCT (B2M),[1]; normalized to B2M,6.159
same,H6PD ΔCT (B2M),[1]; normalized to B2M,8.979
same,HNRPLL ΔCT (B2M),[1]; normalized to B2M,4.617
same,HPRT1 ΔCT (B2M),[1]; normalized to B2M,1.468
same,IL1RN ΔCT (B2M),[1]; normalized to B2M,13.035
same,IL6R ΔCT (B2M),[1]; normalized to B2M,14.660
same,IL10 ΔCT (B2M),[1]; normalized to B2M,13.358
same,KLF9 ΔCT (B2M),[1]; normalized to B2M,13.378
same,KLF13 ΔCT (B2M),[1]; normalized to B2M,5.389
same,LOX ΔCT (B2M),[1]; normalized to B2M,16.238
same,MERTK ΔCT (B2M),[1]; normalized to B2M,15.505
same,MT2A ΔCT (B2M),[1]; normalized to B2M,18.078
same,NFKBIA ΔCT (B2M),[1]; normalized to B2M,4.507
same,NR3C1 ΔCT (B2M),[1]; normalized to B2M,4.617
same,PDCD7 ΔCT (B2M),[1]; normalized to B2M,5.976
same,PDP1 ΔCT (B2M),[1]; normalized to B2M,7.028
same,PER1 ΔCT (B2M),[1]; normalized to B2M,8.563
same,PER2 ΔCT (B2M),[1]; normalized to B2M,5.633
same,PIK3R1 ΔCT (B2M),[1]; normalized to B2M,5.514
same,PLEKHF1 ΔCT (B2M),[1]; normalized to B2M,9.832
same,POU2F1 ΔCT (B2M),[1]; normalized to B2M,6.695
same,POU2F2 ΔCT (B2M),[1]; normalized to B2M,5.951
same,RASA3 ΔCT (B2M),[1]; normalized to B2M,5.130
same,RGS2 ΔCT (B2M),[1]; normalized to B2M,6.440
same,RHOB ΔCT (B2M),[1]; normalized to B2M,8.682
same,RHOJ ΔCT (B2M),[1]; normalized to B2M,17.383
same,RPLP0 ΔCT (B2M),[1]; normalized to B2M,−2.326
same,SESN1 ΔCT (B2M),[1]; normalized to B2M,8.333
same,SGK1 ΔCT (B2M),[1]; normalized to B2M,6.211
same,SLC10A6 ΔCT (B2M),[1]; normalized to B2M,17.913
same,SLC19A2 ΔCT (B2M),[1]; normalized to B2M,11.450
same,SLC22A5 ΔCT (B2M),[1]; normalized to B2M,11.116
same,SNTA1 ΔCT (B2M),[1]; normalized to B2M,7.856
same,SPHK1 ΔCT (B2M),[1]; normalized to B2M,8.657
same,SPSB1 ΔCT (B2M),[1]; normalized to B2M,6.986
same,STAT5A ΔCT (B2M),[1]; normalized to B2M,6.128
same,STAT5B ΔCT (B2M),[1]; normalized to B2M,5.134
same,TBL1XR1 ΔCT (B2M),[1]; normalized to B2M,2.699
same,TNF ΔCT (B2M),[1]; normalized to B2M,4.578
same,TNFAIP3 ΔCT (B2M),[1]; normalized to B2M,8.530
same,TSC22D3 ΔCT (B2M),[1]; normalized to B2M,9.724
same,USP2 ΔCT (B2M),[1]; normalized to B2M,4.287
same,USP54 ΔCT (B2M),[1]; normalized to B2M,8.642
same,VDR ΔCT (B2M),[1]; normalized to B2M,10.367
same,VLDLR ΔCT (B2M),[1]; normalized to B2M,13.757
same,ZFP36 ΔCT (B2M),[1]; normalized to B2M,7.496
same,ZHX3 ΔCT (B2M),[1]; normalized to B2M,7.158
same,ZNF2B1 ΔCT (B2M),[1]; normalized to B2M,4.710
same,ARID5B ΔΔCT,[1]; vs DMSO,0.650
same,EHD3 ΔΔCT,[1]; vs DMSO,−0.885
same,FKBP5 ΔΔCT,[1]; vs DMSO,0.042
same,PIK3R1 ΔΔCT,[1]; vs DMSO,0.431
same,SLC19A2 ΔΔCT,[1]; vs DMSO,−1.143
same,USP54 ΔΔCT,[1]; vs DMSO,−0.064
same,anti-proliferative effect as a single agent,[2],no anti-proliferative effect
